Laboratory results: patent US10508120B2, “TYK2 inhibitors and uses thereof” (Nimbus Lakshmi, Inc., priority 2017, dated 2019)

Tests used:
[1] = biological target: human TYK2 (JH2domain-pseudokinase) (Homo sapiens (Human), UniProt P29597); test: TYK2 JH2 Domain Binding Assay (KINOMEscan)
Procedure, shortened: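 Displacement of a DNA-tagged TYK2 JH2 fusion (human, aa G556–D888, HEK293 extract, <0.1 nM) from ligand-coated beads over 1 h at RT; binding buffer PBS/0.05% Tween 20/10 mM DTT/0.1% BSA.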

[2] = biological target: Tyk2 kinase domain (DH1) (Homo sapiens (Human), UniProt P29597); test: Tyk2 Radioactive Kinase Assay; type: biochemical; details: compound at 10 μM; ATP 10 μM; read-out: Tyk2 JH1% Inhibition @ 10 μM
Chain of Tyk2 kinase domain (DH1) (P29597 897-1176): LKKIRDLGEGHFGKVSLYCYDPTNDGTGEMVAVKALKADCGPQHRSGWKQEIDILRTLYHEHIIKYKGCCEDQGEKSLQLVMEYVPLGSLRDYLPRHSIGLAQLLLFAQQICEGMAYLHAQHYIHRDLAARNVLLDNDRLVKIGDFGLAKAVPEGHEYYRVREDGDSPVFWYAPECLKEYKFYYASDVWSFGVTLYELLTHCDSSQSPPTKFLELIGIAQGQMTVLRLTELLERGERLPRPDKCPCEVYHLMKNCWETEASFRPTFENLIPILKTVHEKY
Procedure, shortened: (§1)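 Read-out is percent inhibition from a radioactive kinase reaction, measured with compound at 10 μM.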

[3] = biological target: JAK2 kinase domain (JH1) (Homo sapiens (Human), UniProt O60674); test: JAK2 Radioactive Kinase Assay; type: biochemical; details: compound at 10 μM; ATP 10 μM; read-out: JAK2 JH1% Inhibition @ 10 μM
Chain of JAK2 kinase domain (JH1) (O60674 849-1124): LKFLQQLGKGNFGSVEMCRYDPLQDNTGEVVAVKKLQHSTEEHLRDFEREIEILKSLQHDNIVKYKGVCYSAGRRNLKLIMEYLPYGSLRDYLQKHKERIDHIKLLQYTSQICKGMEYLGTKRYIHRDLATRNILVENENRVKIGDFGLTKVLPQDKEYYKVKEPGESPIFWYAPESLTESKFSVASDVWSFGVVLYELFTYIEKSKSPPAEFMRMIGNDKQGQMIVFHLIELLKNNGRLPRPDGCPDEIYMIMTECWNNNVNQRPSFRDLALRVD
Procedure, shortened: as §1

Chain of human TYK2 (JH2domain-pseudokinase) (P29597 556-888): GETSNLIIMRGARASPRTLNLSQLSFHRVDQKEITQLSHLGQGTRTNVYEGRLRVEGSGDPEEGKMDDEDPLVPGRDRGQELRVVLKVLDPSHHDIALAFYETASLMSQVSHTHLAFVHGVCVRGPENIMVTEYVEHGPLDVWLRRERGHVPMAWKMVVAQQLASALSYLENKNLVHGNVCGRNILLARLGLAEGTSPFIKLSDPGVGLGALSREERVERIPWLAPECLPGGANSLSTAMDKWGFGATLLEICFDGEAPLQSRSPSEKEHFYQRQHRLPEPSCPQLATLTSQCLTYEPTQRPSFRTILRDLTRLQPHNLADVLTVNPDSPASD

Kd [1] [nM]	inhibition at 10 µM [2] [%]	inhibition at 10 µM [3] [%]	Structure (SMILES)
0.2 to 1	< 50	< 50	CN(C)C(=O)c1cnc(-n2cccc(Nc3cc(N)n4ncc(C(N)=O)c4n3)c2=O)cn1 [I-38]
1 to 10	< 50	< 50	CNc1cc(-c2ccn(-c3ccccc3)n2)nc2c(C(N)=O)cnn12 [I-39, 7-(methylamino)-5-(1-phenyl-1H-pyrazol-3-yl)pyrazolo[1,5-a]pyrimidine-3-carboxamide]
0.2 to 1	< 50	< 50	CNc1cc(Nc2cc(Cl)cn(C3CNC3)c2=O)nc2c(C(N)=O)cnn12 [I-40]
1 to 10	< 50	< 50	CC(C)(O)c1cccc(-n2cccc(Nc3cc(N)n4ncc(C(N)=O)c4n3)c2=O)n1 [I-41]
1 to 10	< 50	< 50	Cc1nccc(-n2cccc(Nc3cc(N)n4ncc(C(N)=O)c4n3)c2=O)n1 [I-42]
< 0.2	< 50	< 50	CNc1cc(Nc2cccn(-c3ccon3)c2=O)nc2c(C(N)=O)cnn12 [I-43, 5-((1-(isoxazol-3-yl)-2-oxo-1,2-dihydropyridin-3-yl)amino)-7-(methylamino)pyrazolo[1,5-a]pyrimidine-3-carboxamide]
0.2 to 1	< 50	< 50	CNc1cc(-c2cnn(-c3ccccc3)c2)nc2c(C(N)=O)cnn12 [I-44]
< 0.2	< 50	< 50	CNc1cc(Nc2cccn(-c3ccc(C(=O)N4CCCC4)cn3)c2=O)nc2c(C(N)=O)cnn12 [I-45]
< 0.2	< 50	< 50	CNc1cc(Nc2cccn(-c3cc(C)on3)c2=O)nc2c(C(N)=O)cnn12 [I-46]
0.2 to 1	< 50	< 50	CNc1cc(Nc2cccn(-c3ccc(F)cn3)c2=O)nc2c(C(N)=O)cnn12 [I-48]
0.2 to 1	< 50	< 50	CCn1cc(Cl)cc(Nc2cc(N)n3ncc(C(N)=O)c3n2)c1=O [I-49]
0.2 to 1	< 50	< 50	NC(=O)c1cnn2c(N)cc(Nc3cccn([C@H]4CC[C@H](O)CC4)c3=O)nc12 [I-50]
0.2 to 1	< 50	< 50	CNc1cc(Nc2cccn(-c3ccnc(C)n3)c2=O)nc2c(C(N)=O)cnn12 [I-51]
0.2 to 1	< 50	< 50	NC(=O)c1cnn2c(N)cc(Nc3cccn(-c4ccc(F)cn4)c3=O)nc12 [I-52]
1 to 10	< 50	< 50	CNc1cc(Nc2cc(C)nc(N3CCCC3=O)c2)nc2c(C(N)=O)cnn12 [I-54]
> 10	< 50	< 50	Cc1cc(Nc2cc(N)n3ncc(C(N)=O)c3n2)cc(N2CCCC2=O)n1 [I-55]
> 10	< 50	< 50	Cc1cc(Nc2cc(N)n3ncc(C(N)=O)c3n2)cc(N2CC[C@@H](O)C2)n1 [I-56]
0.2 to 1	< 50	< 50	NC(=O)c1cnn2c(N)cc(Nc3cccn(-c4ccon4)c3=O)nc12 [I-57]
< 0.2	< 50	50 to 70	NC(=O)c1cnn2c(N)cc(Nc3cccc(N4CCCC4=O)n3)nc12 [I-58]
< 0.2	< 50	< 50	CNc1cc(Nc2cccn([C@H]3CC[C@H](O)CC3)c2=O)nc2c(C(N)=O)cnn12 [I-59]

Kd [1] [nM]	inhibition at 10 µM [2] [%]	inhibition at 10 µM [3] [%]	Structure (SMILES)
1 to 10	< 50	< 50	CNc1cc(Nc2cc(C)nc(N3CC[C@@H](O)C3)c2)nc2c(C(N)=O)cnn12 [I-60]
0.2 to 1	< 50	< 50	CNc1cc(Nc2cc(C)nc(N3CCC[C@@H](O)C3)c2)nc2c(C(N)=O)cnn12 [I-61]
< 0.2	< 50	< 50	CNc1cc(Nc2cccn(-c3cnc(C(C)(C)O)cn3)c2=O)nc2c(C(N)=O)cnn12 [I-63]
0.2 to 1	< 50	< 50	Cc1cc(-n2cccc(Nc3cc(N)n4ncc(C(N)=O)c4n3)c2=O)no1 [I-64]
< 0.2	< 50	< 50	CNc1cc(Nc2cccc(N3CCOC3=O)n2)nc2c(C(N)=O)cnn12 [I-65]
0.2 to 1	< 50	50 to 70	NC(=O)c1cnn2c(N)cc(Nc3cccc(N4CCOC4=O)n3)nc12 [I-66]
< 0.2	< 50	< 50	CNc1cc(Nc2cccn(C3CCN(CC(F)F)CC3)c2=O)nc2c(C(N)=O)cnn12 [I-67]
0.2 to 1	< 50	< 50	CNc1cc(Nc2cccn([C@H]3CC[C@@H](N4CCOCC4)CC3)c2=O)nc2c(C(N)=O)cnn12 [I-68]
0.2 to 1	< 50	< 50	CNc1cc(Nc2ccnn(-c3ccc(F)cc3)c2=O)nc2c(C(N)=O)cnn12 [I-69]
1 to 10	< 50	< 50	NC(=O)c1cnn2c(N)cc(Nc3ccnn(-c4ccc(F)cc4)c3=O)nc12 [I-70, 7-amino-5-((2-(4-fluorophenyl)-3-oxo-2,3-dihydropyridazin-4-yl)amino) pyrazolo[1,5-a]pyrimidine-3-carboxamide]
< 0.2	< 50	< 50	CNc1cc(Nc2cc(Cl)cnc2OC2CCOC2)nc2c(C(N)=O)cnn12 (stereo not drawn) [I-71]
1 to 10	< 50	< 50	CNc1cc(Nc2cc(C)nn(-c3cnn(C)c3)c2=O)nc2c(C(N)=O)cnn12 [I-73]
0.2 to 1	< 50	< 50	Cc1cc(Nc2cc(N)n3ncc(C(N)=O)c3n2)c(=O)n(-c2cnn(C)c2)n1 [I-74]
0.2 to 1	< 50	< 50	CNc1cc(Nc2cc(C)cn(-c3ccnn3C)c2=O)nc2c(C(N)=O)cnn12 [I-75]
1 to 10	< 50	< 50	NC(=O)c1cnn2c(N)cc(Nc3cccn([C@H]4CC[C@@H](N5CCOCC5)CC4)c3=O)nc12 [I-76]
0.2 to 1	< 50	< 50	CC(C)Oc1ncccc1Nc1cc(N)n2ncc(C(N)=O)c2n1 [I-77]
< 0.2	< 50	< 50	CNc1cc(Nc2cc(Cl)cnc2OC(C)C)nc2c(C(N)=O)cnn12 [I-78]
0.2 to 1	< 50	< 50	CC(C)Oc1ncc(Cl)cc1Nc1cc(N)n2ncc(C(N)=O)c2n1 [I-79]
0.2 to 1	< 50	< 50	CNc1cc(Nc2cc(Cl)cnc2OC2CCC2)nc2c(C(N)=O)cnn12 [I-80]
1 to 10	< 50	< 50	NC(=O)c1cnn2c(N)cc(Nc3cc(Cl)cnc3OC3CCC3)nc12 [I-81]
